Assays:
OR1A1 = biological target: T1, OR1A1 (Homo sapiens, UniProt Q9P1Q5); assay: cAMP accumulation; format: biochemical
T1 sequence (Q9P1Q5 1-309): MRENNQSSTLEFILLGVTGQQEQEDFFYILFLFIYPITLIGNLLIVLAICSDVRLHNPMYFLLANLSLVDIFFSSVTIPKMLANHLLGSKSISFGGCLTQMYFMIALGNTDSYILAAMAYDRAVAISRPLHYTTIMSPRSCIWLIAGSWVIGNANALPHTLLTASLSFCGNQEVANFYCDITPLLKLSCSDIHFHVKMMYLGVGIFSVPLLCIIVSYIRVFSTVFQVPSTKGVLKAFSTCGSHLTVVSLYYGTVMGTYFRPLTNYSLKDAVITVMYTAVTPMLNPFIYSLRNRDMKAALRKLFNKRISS

OR5AN1 = biological target: T2, OR5AN1 (Homo sapiens, UniProt Q8NGI8); assay: cAMP accumulation; format: biochemical
T2 sequence (Q8NGI8 1-311): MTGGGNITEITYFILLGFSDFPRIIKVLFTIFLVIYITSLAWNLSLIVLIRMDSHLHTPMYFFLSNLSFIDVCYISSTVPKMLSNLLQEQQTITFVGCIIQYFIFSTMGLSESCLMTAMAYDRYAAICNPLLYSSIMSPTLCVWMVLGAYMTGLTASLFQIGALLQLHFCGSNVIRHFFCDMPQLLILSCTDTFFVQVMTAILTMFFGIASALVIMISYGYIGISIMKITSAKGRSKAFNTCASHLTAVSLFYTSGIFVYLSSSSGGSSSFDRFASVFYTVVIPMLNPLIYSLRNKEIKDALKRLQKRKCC

Row | Structure (SMILES) | EC50 (OR1A1) | EC50 (OR5AN1)
1 | CCCCCC(=O)C(C)C(C)=O (centres unmarked) [3-methyl-2,4-nonanedione] | 0.388 µM | 
2 | C[C@@H]1CCCCCCCCCCCCC(=O)C1 [muscone] |  | 0.29 µM

Source: paper doi:10.1101/2021.09.28.462154v2 (biorxiv, 2022)
